How the values were obtained:
[1] = system: STZ-induced diabetic mice; experiment: Hargreaves thermal nociception test in STZ-induced diabetic mice; format: in vivo, mouse; settings: topical cream for 16 weeks from hyperglycemia; tests from week 8
Description: To explore the utility of XIB4035 in a more clinically relevant model, diabetic peripheral neuropathy was selected because more than 50% of all diabetic patients develop some form of peripheral neuropathy, particularly SFN. Streptozotocin (STZ) induced diabetic model was chosen, in which a single injection of STZ kills pancreatic beta cells causing diabetes and produces SFN symptoms several weeks later. Upon becoming hyperglycemic, STZ injected mice were topically treated daily with either control or XIB4035 containing cream for 16 weeks. Thermal nociceptive tests began 8 weeks after initiation of treatment and were repeated every two weeks.
Adult female C57 Bl/6J mice were made diabetic (blood glucose >15 mmol/L) by injection of STZ (90 mg/kg i.p.) on two consecutive days, with confirmation of hyperglycemia made 7 days after STZ delivery. Paw thermal response latency of the right paw was measured every two weeks from weeks 8-16 of diabetes using a modified Hargeaves test, as described
(§1) The cream containing XIB4035 (1.5 mM, ZereneX Molecular Ltd., Manchester, UK) consisted of N-methyl-pyrrolidone (6.25%), isopropyl myristate (6.25%) and petroleum jelly (87.5%). Control cream had the same ingredients without XIB4035. Cream was applied twice daily to the hind paws of mice starting at P21 for a period of 4 weeks for prophylactic treatment of GFAP-DN-erbB4. […]

ErbB2/ErbB3 = molecular target: T1, ErbB2/ErbB3 (Rattus norvegicus, UniProt P06494+Q62799); experiment: NRG1-dependent activation of ErbB2/ErbB3 in L6 muscle cells; format: cell-based
T1 construct: endogenous in cells; host or cells: L6 muscle cells
T1 sequence (P06494 23-1257): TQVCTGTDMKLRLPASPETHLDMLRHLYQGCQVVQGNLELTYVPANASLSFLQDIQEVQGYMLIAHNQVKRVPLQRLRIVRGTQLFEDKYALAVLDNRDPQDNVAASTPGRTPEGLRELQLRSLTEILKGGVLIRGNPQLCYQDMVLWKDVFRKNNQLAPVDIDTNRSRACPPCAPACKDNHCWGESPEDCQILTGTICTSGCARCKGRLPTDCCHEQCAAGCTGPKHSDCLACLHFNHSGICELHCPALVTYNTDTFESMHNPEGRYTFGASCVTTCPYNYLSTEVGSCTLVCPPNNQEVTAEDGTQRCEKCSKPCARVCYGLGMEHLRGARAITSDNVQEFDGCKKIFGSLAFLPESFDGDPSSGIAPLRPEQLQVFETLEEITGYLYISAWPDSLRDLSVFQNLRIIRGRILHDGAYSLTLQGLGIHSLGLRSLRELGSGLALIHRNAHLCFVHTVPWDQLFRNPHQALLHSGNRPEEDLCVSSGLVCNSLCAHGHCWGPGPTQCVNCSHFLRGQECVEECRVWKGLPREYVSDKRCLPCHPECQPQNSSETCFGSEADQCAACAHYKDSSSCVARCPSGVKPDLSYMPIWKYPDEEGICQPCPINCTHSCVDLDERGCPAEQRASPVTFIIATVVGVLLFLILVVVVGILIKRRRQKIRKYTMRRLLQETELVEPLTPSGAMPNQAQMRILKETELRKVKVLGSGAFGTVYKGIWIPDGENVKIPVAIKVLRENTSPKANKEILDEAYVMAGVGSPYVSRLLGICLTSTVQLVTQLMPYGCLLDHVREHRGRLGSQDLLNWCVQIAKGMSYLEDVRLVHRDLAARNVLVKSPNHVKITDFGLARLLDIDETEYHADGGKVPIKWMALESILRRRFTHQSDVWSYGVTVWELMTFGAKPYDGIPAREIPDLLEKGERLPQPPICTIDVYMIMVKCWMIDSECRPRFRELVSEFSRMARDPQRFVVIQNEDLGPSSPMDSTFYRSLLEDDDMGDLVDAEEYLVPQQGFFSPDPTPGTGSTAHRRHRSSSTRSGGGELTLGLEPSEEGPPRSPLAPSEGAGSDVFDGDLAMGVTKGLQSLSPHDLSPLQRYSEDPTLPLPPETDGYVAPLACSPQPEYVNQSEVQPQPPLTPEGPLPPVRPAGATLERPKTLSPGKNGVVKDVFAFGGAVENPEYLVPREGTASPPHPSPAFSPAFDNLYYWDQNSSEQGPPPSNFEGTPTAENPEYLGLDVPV
T1 sequence (Q62799 20-1339): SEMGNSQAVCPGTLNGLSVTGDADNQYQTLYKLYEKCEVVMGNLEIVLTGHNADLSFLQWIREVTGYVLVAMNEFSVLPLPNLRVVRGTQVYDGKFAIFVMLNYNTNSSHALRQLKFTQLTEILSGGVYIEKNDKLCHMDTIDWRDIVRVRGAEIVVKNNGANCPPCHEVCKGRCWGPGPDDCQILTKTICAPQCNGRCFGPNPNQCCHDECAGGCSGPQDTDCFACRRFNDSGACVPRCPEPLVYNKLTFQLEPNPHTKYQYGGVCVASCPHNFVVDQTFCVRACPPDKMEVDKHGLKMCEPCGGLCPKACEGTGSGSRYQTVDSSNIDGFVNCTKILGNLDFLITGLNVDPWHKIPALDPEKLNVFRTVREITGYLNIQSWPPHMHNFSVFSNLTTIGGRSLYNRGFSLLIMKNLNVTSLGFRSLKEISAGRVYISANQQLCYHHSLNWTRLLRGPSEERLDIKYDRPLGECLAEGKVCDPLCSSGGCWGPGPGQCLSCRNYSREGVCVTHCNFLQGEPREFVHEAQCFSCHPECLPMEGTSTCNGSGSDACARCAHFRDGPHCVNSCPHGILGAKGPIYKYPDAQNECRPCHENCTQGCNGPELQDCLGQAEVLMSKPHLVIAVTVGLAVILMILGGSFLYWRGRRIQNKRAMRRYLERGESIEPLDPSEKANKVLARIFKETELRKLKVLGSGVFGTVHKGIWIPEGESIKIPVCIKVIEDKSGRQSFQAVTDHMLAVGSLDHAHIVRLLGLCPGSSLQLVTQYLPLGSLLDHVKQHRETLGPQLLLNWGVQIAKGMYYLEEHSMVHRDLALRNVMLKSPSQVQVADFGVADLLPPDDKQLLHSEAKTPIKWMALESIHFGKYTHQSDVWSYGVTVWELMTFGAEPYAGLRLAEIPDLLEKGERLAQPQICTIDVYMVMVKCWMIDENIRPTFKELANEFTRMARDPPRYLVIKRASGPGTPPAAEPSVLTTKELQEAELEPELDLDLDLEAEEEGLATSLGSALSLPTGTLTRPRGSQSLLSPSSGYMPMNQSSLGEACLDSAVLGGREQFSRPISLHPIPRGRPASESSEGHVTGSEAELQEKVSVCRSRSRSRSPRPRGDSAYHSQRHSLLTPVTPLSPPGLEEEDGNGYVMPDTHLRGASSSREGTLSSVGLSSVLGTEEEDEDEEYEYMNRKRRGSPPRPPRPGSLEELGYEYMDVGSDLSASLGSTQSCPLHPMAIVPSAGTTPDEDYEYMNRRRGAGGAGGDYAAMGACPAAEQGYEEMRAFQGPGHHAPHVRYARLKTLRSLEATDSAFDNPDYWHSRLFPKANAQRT

GFAP-DN-erbB4 mice = experiment: Hot plate (54° C.) thermal nociception test, GFAP-DN-erbB4 small fiber neuropathy model; format: in vivo, mouse
Procedure: As a first test, a cream containing XIB4035 (1.5 mM) was applied directly to the hind paws of GFAP-DN-erbB4 and wild type mice twice daily for a period of 4 weeks starting prior to symptom onset (P21). Mice of both genotypes were also treated with the base cream containing no drug for control. Mice were tested for responses to a noxious thermal stimulus prior to the initiation of treatment and every 7 days for the duration of the experiment.
However, in the clinic, therapy would almost certainly begin after patients present with symptoms of SFN. Therefore, it was determined whether topical XIB4035 can act as a disease-modifying agent in the GFAP-DN-erbB4 neuropathy model starting after animals are clearly symptomatic (P28). […] While IB4 labeling in mutant mice was lower than wild types regardless of treatment, IB4 signal was clearly present in mutant mice treated with XIB4035 while absent in those treated with control cream (FIG. 3D; 83% of XIB4035 treated mice (n=6) with IB4+ lamina II terminals vs 0% (n=4) in control treated mice) (FIG. 3D).
Transgenic mouse lines used were as previously described (Lacomis et al., Muscle Nerve 26, 173-188 (2002); Comblath et al., Current opinion in Neurology 19, 446-450 (2006)). Animals were kept in the animal facility with free access to food and water. Behavioral experiments were performed in a quiet environment at the same time of day. The hot plate test was performed using a “controlled hot-plate analgesia meter” (Columbus Instruments) heated to 54° C. Paw withdrawal latency was measured as the time required for the mouse to visibly respond to the thermal stimulus, e.g. licking paws, shaking paws, or jumping off of the plate.
as §1

GFRα2/RET = molecular target: T2, GFRα2/RET (Homo sapiens, UniProt O00451+P07949); experiment: NRTN/GFRα2-induced RET phosphorylation in B(E)2-C cells; format: cell-based; settings: 2 nM NRTN with 20 μM XIB4035, 10 minutes, then 60 minutes growth medium
T2 construct: B(E)2-C cells, which express only GFRα2 together with RET; endogenous in cells; host or cells: B(E)2-C / BE(2)-C cells
T2 sequence (O00451 22-444 limits assumed): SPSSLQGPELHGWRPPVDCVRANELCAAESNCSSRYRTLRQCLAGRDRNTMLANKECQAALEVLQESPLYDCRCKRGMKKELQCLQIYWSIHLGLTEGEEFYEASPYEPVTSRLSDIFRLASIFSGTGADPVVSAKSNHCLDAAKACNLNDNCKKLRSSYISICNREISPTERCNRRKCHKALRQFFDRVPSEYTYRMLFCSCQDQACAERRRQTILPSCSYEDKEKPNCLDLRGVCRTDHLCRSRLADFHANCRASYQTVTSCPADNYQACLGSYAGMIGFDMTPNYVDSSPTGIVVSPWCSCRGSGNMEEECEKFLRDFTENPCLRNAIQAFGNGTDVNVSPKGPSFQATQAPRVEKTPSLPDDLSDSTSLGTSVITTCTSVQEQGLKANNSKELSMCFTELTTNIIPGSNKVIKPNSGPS
T2 sequence (P07949 29-1114): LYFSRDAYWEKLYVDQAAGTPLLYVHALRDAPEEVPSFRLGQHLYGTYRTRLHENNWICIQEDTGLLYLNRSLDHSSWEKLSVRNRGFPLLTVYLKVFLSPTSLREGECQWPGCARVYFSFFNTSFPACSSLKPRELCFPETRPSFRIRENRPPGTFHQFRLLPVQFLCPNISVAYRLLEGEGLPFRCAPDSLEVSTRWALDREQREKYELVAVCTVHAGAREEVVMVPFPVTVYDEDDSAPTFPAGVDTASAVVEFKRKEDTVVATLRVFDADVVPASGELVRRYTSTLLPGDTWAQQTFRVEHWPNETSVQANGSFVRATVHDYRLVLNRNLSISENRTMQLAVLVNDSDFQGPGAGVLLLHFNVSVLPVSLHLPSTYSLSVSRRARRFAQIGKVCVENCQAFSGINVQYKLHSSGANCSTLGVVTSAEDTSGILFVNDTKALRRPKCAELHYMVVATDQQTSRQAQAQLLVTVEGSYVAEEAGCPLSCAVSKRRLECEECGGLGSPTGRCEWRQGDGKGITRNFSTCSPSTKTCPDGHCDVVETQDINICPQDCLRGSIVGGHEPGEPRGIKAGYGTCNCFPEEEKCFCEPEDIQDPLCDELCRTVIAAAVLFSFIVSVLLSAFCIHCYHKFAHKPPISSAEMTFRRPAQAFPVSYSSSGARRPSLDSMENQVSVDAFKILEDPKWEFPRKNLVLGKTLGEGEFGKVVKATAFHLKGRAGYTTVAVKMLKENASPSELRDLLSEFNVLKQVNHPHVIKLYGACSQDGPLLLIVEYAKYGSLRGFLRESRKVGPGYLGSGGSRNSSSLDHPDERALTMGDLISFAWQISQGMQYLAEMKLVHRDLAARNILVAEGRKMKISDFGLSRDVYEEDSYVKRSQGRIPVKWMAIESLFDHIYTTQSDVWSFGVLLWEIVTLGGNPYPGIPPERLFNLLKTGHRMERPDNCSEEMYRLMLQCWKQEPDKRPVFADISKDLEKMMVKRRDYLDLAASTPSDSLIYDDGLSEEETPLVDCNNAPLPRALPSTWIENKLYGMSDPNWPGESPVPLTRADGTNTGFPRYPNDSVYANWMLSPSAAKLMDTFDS
Procedure: B(E)2-C cells, which express GFRα2, were treated under different conditions (no treatment, 2 nM NRTN, or 2 nM NRTN with 20 μM XIB4035) for 10 minutes. Cells were either lysed immediately or after incubation in growth medium for an additional 60 minutes.
Since the original report argued that XIB4035 displaces GDNF binding to GFRα1 expressing cells (FIG. 2 in Tokugawa et al., Neurochem Int 42, 81-86 (2003).), potentially ARTN, on TH-luciferase activity and Ret phosphorylation. […] In this experiment, cells were treated with GDNF or ARTN with or without XIB4035 for 10 minutes and cell lysates were either collected immediately or treatment was washed out and replaced with growth media for 30, 60, or 120 minutes. […] Therefore, we tested cells expressing only one GFRα using either N2A cells (which express RET) transfected with GFRα1 or GFRα3 expression constructs, or B(E)2-C cells, which express only GFRα2 together with RET. […] The GFRα1 or GFRα3 transfected N2A cells were then treated with XIB4035 alone, the appropriate ligand for the expressed receptor alone, or XIB4035 and ligand in combination for 10 minutes, and collected lysates immediately after treatment or 60 minutes after washout. […] Similar results were obtained with GFRα2 and NRTN using B(E)2-C cells (FIG. 8). […]

SMILES: CCN(CC)CCCC(C)Nc1cc(/C=C/c2ccccc2Cl)nc2cc(Cl)ccc12 (stereo not drawn) [XIB4035, N4-{7-chloro-2-[(E)-2-(2-chloro-phenyl)-vinyl]-quinolin-4-yl}-N1,N1-diethyl-pentane-1,4-diamine]
- sensory function (thermal nociceptive tests) [1]: better sensory function than those exposed to the control cream
- NRG1-dependent activation of ErbB2/ErbB3 (ErbB2/ErbB3): did not influence
- reaction times to noxious thermal stimulus (thermal nociception) (GFAP-DN-erbB4 mice; prophylactic, cream 1.5 mM on hind paws twice daily, 4 weeks from P21, 54° C. hot plate): indistinguishable from wild type animals
- neuropathic symptoms (thermal nociception) (GFAP-DN-erbB4 mice; therapeutic, treatment started after onset (P28), read one week later (P35), persisted with continued treatment): significant reduction in symptoms
- neuropathic symptoms after interruption of treatment (GFAP-DN-erbB4 mice; treatment initiated at P28, interrupted at P35): neuropathic symptoms reappeared one week later
- RET phosphorylation at 60 min (GFRα2/RET): detected

From patent publication US20160045487A1, “COMPOSITIONS AND METHODS FOR TREATING NEUROPATHY” (CHILDEREN'S MEDICAL CENTER CORPORATION, priority 2013, published 2016)
